Assay results from the supplement of paper PMC10307832.

Legend:
Assay in all cases: relative viability (nuclei count vs DMSO), 5 days (fraction); higher = more cells survive
NCI-H1650 = test system: NCI-H1650
How it was run: (§1)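 Relative viability equals treated-well nuclei counts divided by vehicle-well nuclei counts. Counts came from 4× images of lung cancer cell lines grown in 1536-well plates for 5 days after pin-tool dosing on the day after seeding. Dosing used one drug alone or a fixed anchor-drug dose plus five library-drug doses (not always all listed) in √10 steps, and values are medians of duplicate plates.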

NCI-H1666 = test system: NCI-H1666
How it was run: as §1

NCI-H1793 = test system: NCI-H1793
How it was run: as §1

NCI-H1944 = test system: NCI-H1944
How it was run: as §1

NCI-H2085 = test system: NCI-H2085
How it was run: as §1

NCI-H2087 = test system: NCI-H2087
How it was run: as §1

NCI-H2126 = test system: NCI-H2126
How it was run: as §1

NCI-H3122 = test system: NCI-H3122
How it was run: as §1

NCI-H441 = test system: NCI-H441
How it was run: as §1

NCI-H596 = test system: NCI-H596
How it was run: as §1

NCI-H661 = test system: NCI-H661
How it was run: as §1

PC-14 = test system: PC-14
How it was run: as §1

CCNC(=O)c1noc(-c2cc(C(C)C)c(O)cc2O)c1-c1ccc(CN2CCOCC2)cc1 [Luminespib] + O=C(CCCCCCC(=O)Nc1ccccc1)NO [Vorinostat] (partner 1 µM)
relative viability (NCI-H1650; first compound 0.06325 µM): 0.139 | relative viability (NCI-H1650; first compound 0.2 µM): 0.135 | relative viability (NCI-H1666; first compound 0.002 µM): 0.983 | relative viability (NCI-H1666; first compound 0.006325 µM): 0.994 | relative viability (NCI-H1666; first compound 0.02 µM): 1.19 | relative viability (NCI-H1666; first compound 0.06325 µM): 1.03 | relative viability (NCI-H1666; first compound 0.2 µM): 0.909 | relative viability (NCI-H1793; first compound 0.002 µM): 0.631 | relative viability (NCI-H1793; first compound 0.006325 µM): 0.556 | relative viability (NCI-H1793; first compound 0.02 µM): 0.271 | relative viability (NCI-H1793; first compound 0.06325 µM): 0.107 | relative viability (NCI-H1793; first compound 0.2 µM): 0.122 | relative viability (NCI-H1944; first compound 0.002 µM): 0.549 | relative viability (NCI-H1944; first compound 0.006325 µM): 0.571 | relative viability (NCI-H1944; first compound 0.02 µM): 0.354 | relative viability (NCI-H1944; first compound 0.06325 µM): 0.404 | relative viability (NCI-H1944; first compound 0.2 µM): 0.153 | relative viability (NCI-H2085; first compound 0.002 µM): 0.797 | relative viability (NCI-H2085; first compound 0.006325 µM): 0.717 | relative viability (NCI-H2085; first compound 0.02 µM): 0.553 | relative viability (NCI-H2085; first compound 0.06325 µM): 0.367 | relative viability (NCI-H2085; first compound 0.2 µM): 0.31 | relative viability (NCI-H2087; first compound 0.002 µM): 0.667 | relative viability (NCI-H2087; first compound 0.006325 µM): 0.609 | relative viability (NCI-H2087; first compound 0.02 µM): 0.656 | relative viability (NCI-H2087; first compound 0.06325 µM): 0.111 | relative viability (NCI-H2087; first compound 0.2 µM): 0.122 | relative viability (NCI-H2126; first compound 0.002 µM): 0.743 | relative viability (NCI-H2126; first compound 0.006325 µM): 0.765 | relative viability (NCI-H2126; first compound 0.06325 µM): 0.468 | relative viability (NCI-H2126; first compound 0.2 µM): 0.192 | relative viability (NCI-H3122; first compound 0.002 µM): 0.991 | relative viability (NCI-H3122; first compound 0.006325 µM): 0.973 | relative viability (NCI-H3122; first compound 0.02 µM): 0.456 | relative viability (NCI-H3122; first compound 0.06325 µM): 0.787 | relative viability (NCI-H3122; first compound 0.2 µM): 0.067 | relative viability (NCI-H441; first compound 0.002 µM): 0.784 | relative viability (NCI-H441; first compound 0.006325 µM): 0.823 | relative viability (NCI-H441; first compound 0.02 µM): 0.785 | relative viability (NCI-H441; first compound 0.06325 µM): 0.233 | relative viability (NCI-H441; first compound 0.2 µM): 0.11 | relative viability (NCI-H596; first compound 0.002 µM): 0.61 | relative viability (NCI-H596; first compound 0.006325 µM): 0.553 | relative viability (NCI-H596; first compound 0.02 µM): 0.434 | relative viability (NCI-H596; first compound 0.06325 µM): 0.634 | relative viability (NCI-H596; first compound 0.2 µM): 0.574 | relative viability (NCI-H661; first compound 0.002 µM): 0.777 | relative viability (NCI-H661; first compound 0.006325 µM): 0.803 | relative viability (NCI-H661; first compound 0.02 µM): 0.759 | relative viability (NCI-H661; first compound 0.06325 µM): 0.345 | relative viability (NCI-H661; first compound 0.2 µM): 0.306 | relative viability (PC-14; first compound 0.002 µM): 0.787 | relative viability (PC-14; first compound 0.006325 µM): 0.639 | relative viability (PC-14; first compound 0.02 µM): 0.121 | relative viability (PC-14; first compound 0.06325 µM): 0.0465 | relative viability (PC-14; first compound 0.2 µM): 0.0692
